In patent US20050009103A1, “Methods of precise molecular-level determination of ligand-receptor interactions and designing selective drug compounds based on said interactions” (priority 2003, published 2005):
Like-named read-outs stand apart in the source and are kept apart here.

Assays:
[1] = system: Mouse muscle embryonic nAChR, 4,5,6,7-F4-Trp at α149, Leu9′Ser mutation in M2 of the β subunit; experiment: Two-electrode voltage clamp of Xenopus oocytes expressing nAChR, F4-Trp at α149; type: cell-based
Procedure: (§1) Unnatural amino acids were incorporated into the nAChR using in vivo nonsense suppression methods, and mutant receptors were evaluated electrophysiologically (Dougherty, D. A. (2000) Curr. Opin. Chem. Biol. 4:645-652).
(§2) In studies of weak agonists and/or receptors with diminished binding capability, it is necessary to introduce another mutation that independently decreases EC50. This was accomplished via a Leu-to-Ser mutation in the β subunit at a site known as 9′ in the M2 transmembrane region of the receptor. This M2-β9′ site is almost 50 Å from the binding site, and previous work has shown that a Leu9′Ser mutation lowers the EC50 by a factor of roughly 10 without altering trends in EC50 values (Beene, D. L., et al. (2002) Biochem. 41:10262-9; and Kearney, P. C., et al. (1996) Mil. Pharmacol. 50:1401-1412). […] It is important to note that the EC50 value is not a binding constant, but a composite of equilibria for both binding and gating.
Stage VI oocytes of Xenopus laevis were employed. Oocyte recordings were made 24 to 48 h post injection in two-electrode voltage clamp mode using the OpusXpress™ 6000A (Axon Instruments, Union City, Calif.). Oocytes were superfused with Ca^2+-free ND96 solution at flow rates of 1 ml/min, 4 ml/min during drug application and 3 ml/min during wash. Holding potentials were −60 mV. Data were sampled at 125 Hz and filtered at 50 Hz. […]

[2] = system: Mouse muscle embryonic nAChR, Tah α150 (ester carbonyl of Trp α149), Leu9′Ser mutation in M2 of the β subunit; type: cell-based
Procedure: as §1, §2
(§3) To evaluate this possibility, the backbone amide at this position was converted to an ester by replacing Thr α150 with the analog α-hydroxy threonine (Tah) using the nonsense suppression methodology (FIG. 9a). Converting an amide carbonyl to an ester carbonyl weakens the hydrogen bonding ability of the oxygen, an effect that has been estimated to be worth ˜[…] (Koh, J. T., et al. (1997) Biochem. 36:11314-22).
(§4) Stage VI oocytes of Xenopus laevis were employed. Oocyte recordings were made 24 to 48 h post injection in two-electrode voltage clamp mode using the OpusXpress™ 6000A (Axon Instruments, Union City, Calif.). Oocytes were superfused with Ca^2+-free ND96 solution at flow rates of 1 ml/min, 4 ml/min during drug application and 3 ml/min during wash. Holding potentials were −60 mV. Data were sampled at 125 Hz and filtered at 50 Hz. Drug applications were 15 s in duration. […] All drugs were prepared in sterile ddi water for dilution into calcium-free ND96. Dose-response data were obtained for a minimum of 10 concentrations of agonists and for a minimum of 7 cells. Dose-response relations were fitted to the Hill equation to determine EC50 and Hill coefficient. EC50 for individual oocytes were averaged to obtain the reported values.
(§5) Synthetic amino acids and α-hydroxy acids were conjugated to the dinucleotide dCA and ligated to truncated 74 nt tRNA as previously described in England, P. M., et al. (1999) supra; and Nowak, M. W., et al. (1998) Methods Enzymol. 293:504-529. Deprotection of amino acyl tRNA was carried out by photolysis immediately prior to co-injection with mRNA, as described in Nowak M. W., et al. (1998) supra; and Li, L. T., et al. (2001) Chem. Biol. 8:47-58. Typically, 25 ng of tRNA were injected per oocyte along with mRNA in a total volume of 50 nl/cell. mRNA was prepared by in vitro runoff transcription using the Ambion (Austin, Tex.) mMessage mMachine kit. Mutation to the amber stop codon at the site of interest was accomplished by standard means and was verified by sequencing through both strands. For nAChR suppression, a total of 4.0 ng of mRNA was injected in the subunit ratio of 10:1:1:1 α:β:γ:δ. In all cases, the β subunit contained a Leu9′Ser mutation, as discussed above. Mouse muscle embryonic nAChR in the pAMV vector was used. In addition, the α subunits contain an HA epitope in the M3-M4 cytoplasmic loop for biochemical studies. […] As a negative control for suppression, truncated 74 nt or truncated tRNA ligated to dCA was co-injected with mRNA in the same manner as fully charged tRNA. […] The positive control for suppression involved wild-type recovery by co-injection with 74 nt tRNA ligated to dCA-Thr or dCA-Trp.

[3] = biological target: T1, Mouse muscle embryonic nAChR, Tah α150 (ester carbonyl of Trp α149), Leu9′Ser mutation in M2 of the β subunit (Mus musculus, UniProt P02716+P04756+P04760); type: cell-based; details: read-out: EC50, Tah at α150
T1 construct: other: ± standard error of the mean; backbone ester; β Leu9′Ser; Mouse muscle embryonic nAChR in the pAMV vector was used
Procedure: as §1, §2, §3, §4, §5

[4] = biological target: Mouse muscle embryonic nAChR, Thr α150, Leu9′Ser mutation in M2 of the β subunit (Mus musculus, UniProt P02716+P04756+P04760+P09690, L285S); experiment: cell-based
Procedure: as §1, §2
To evaluate this possibility, the backbone amide at this position was converted to an ester by replacing Thr α150 with the analog α-hydroxy threonine (Tah) using the nonsense suppression methodology (FIG. 9a). Converting an amide carbonyl to an ester carbonyl weakens the hydrogen bonding ability of the oxygen, an effect that has been estimated to be worth ˜[…] (Koh, J. T., et al. (1997) Biochem. 36:11314-22). […]

T1 sequence (P02716 25-520 limits assumed, change not shown): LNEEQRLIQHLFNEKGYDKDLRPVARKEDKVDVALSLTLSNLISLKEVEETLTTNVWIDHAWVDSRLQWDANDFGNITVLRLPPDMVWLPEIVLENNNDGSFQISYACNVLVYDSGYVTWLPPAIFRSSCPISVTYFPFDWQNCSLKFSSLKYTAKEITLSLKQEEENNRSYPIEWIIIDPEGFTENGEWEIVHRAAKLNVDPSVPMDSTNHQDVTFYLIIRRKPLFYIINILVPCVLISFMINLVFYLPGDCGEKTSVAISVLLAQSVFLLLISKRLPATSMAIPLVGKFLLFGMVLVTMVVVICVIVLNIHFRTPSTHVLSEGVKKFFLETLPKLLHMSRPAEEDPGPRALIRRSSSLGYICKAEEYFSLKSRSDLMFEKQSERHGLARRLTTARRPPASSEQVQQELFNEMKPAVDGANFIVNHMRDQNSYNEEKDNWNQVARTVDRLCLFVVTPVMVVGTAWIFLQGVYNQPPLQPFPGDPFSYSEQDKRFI
T1 sequence (P04756 21-457 limits assumed, change not shown): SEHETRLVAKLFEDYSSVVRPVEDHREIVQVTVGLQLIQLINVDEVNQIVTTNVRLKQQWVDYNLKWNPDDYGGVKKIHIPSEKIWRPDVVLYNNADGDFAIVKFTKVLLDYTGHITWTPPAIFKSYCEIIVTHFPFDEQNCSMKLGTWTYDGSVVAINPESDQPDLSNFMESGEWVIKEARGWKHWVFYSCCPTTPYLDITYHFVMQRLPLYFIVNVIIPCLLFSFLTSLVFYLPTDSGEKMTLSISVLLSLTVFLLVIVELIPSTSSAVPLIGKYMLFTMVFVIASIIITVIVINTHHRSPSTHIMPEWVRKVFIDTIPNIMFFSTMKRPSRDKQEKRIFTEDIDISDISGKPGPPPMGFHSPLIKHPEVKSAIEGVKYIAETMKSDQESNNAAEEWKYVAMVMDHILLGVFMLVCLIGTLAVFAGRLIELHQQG
T1 sequence (P04760 23-519 limits assumed, change not shown): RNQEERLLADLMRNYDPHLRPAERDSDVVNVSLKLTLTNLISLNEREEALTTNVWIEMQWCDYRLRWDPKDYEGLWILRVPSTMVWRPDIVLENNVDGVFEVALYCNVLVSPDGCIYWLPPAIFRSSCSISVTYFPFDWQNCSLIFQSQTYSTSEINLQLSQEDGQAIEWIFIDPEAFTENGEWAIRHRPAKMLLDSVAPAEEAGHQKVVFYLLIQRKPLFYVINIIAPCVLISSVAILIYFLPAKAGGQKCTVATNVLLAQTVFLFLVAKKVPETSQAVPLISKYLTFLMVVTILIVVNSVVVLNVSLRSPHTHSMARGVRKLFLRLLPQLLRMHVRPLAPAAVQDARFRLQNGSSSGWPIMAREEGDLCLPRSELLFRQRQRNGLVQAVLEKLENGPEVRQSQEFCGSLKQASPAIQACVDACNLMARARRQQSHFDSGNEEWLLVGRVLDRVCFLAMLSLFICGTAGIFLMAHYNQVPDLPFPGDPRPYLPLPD
Chain of Mouse muscle embryonic nAChR, Thr α150, Leu9′Ser mutation in M2 of the β subunit (P04756 21-457): as the sequence (P04756 21-457 limits assumed, change not shown) above
Chain of Mouse muscle embryonic nAChR, Thr α150, Leu9′Ser mutation in M2 of the β subunit (P09690 24-501 L285S): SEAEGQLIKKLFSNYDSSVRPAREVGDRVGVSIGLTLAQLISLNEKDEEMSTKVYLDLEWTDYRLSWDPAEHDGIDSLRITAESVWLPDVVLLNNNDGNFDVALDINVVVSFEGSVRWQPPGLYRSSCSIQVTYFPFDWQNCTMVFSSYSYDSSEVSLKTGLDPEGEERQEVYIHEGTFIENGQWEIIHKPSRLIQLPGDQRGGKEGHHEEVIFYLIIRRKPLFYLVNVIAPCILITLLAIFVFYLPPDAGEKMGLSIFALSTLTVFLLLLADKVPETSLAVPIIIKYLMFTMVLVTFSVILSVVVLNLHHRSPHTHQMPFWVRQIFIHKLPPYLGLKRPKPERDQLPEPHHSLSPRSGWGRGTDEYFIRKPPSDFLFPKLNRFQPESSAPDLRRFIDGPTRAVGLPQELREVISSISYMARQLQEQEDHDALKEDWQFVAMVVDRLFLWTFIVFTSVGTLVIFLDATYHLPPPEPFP
Chain of Mouse muscle embryonic nAChR, Thr α150, Leu9′Ser mutation in M2 of the β subunit (P04760 23-519): as the sequence (P04760 23-519 limits assumed, change not shown) above
Chain of Mouse muscle embryonic nAChR, Thr α150, Leu9′Ser mutation in M2 of the β subunit (P02716 25-520): as the sequence (P02716 25-520 limits assumed, change not shown) above

| SMILES | Epi concentrations required by 4,5,6,7-F4-Trp α149 mutant (dose-response unsuccessful) [1] | drop in hydrogen bonding strength ([2]; Tah/Thr ratio multiplied by generic 3.3-fold decrease seen with ACh) | energy corresponding to drop in hydrogen bonding strength ([2]; from corrected fold change) | EC50 [3] | Tah/Thr (fold increase in EC50 upon ester substitution) [2] | drop in hydrogen bonding strength [2] | energy corresponding to drop in hydrogen bonding strength [2] | EC50 [4] |
| --- | --- | --- | --- | --- | --- | --- | --- | --- |
| Clc1ccc(C2CC3CCC2N3)cn1 (racemic) [Epi, epibatidine] | above 100 μM | ~12 fold | 1.5 kcal/mol | – | – | – | – | – |
| CN1CCCC1c1cccnc1 (centres unmarked) [Nic, nicotine] | – | – | – | 92 ± 4 µM | 1.6 | ~5 fold | 1.0 kcal/mol | 57 ± 2 µM |
